Measurements: US12655116B2, “Substituted isophthalic acid diamides” (Bayer Aktiengesellschaft, priority 2020, dated 2026)

Assays:
HORMU [1] = test: Pre-emergence herbicidal action against HORMU; type: in vivo, Hordeum murinum; conditions: Hordeum murinum, 504 h, pre-emergence
Summary of the method: (§1)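 Greenhouse pots of sandy loam held seeds covered with soil, onto which the compound was applied before emergence. An aqueous suspension or emulsion of WP or EC was used at 600 to 800 l/ha with 0.2% wetting agent. Percent damage was judged visually at 3 weeks.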

STEME [2] = test: Pre-emergence herbicidal action against STEME; type: in vivo, Stellaria media; conditions: Stellaria media, 504 h; for pest or weed control at 80 g/ha: dosage 80 g/ha
Summary of the method: as §1

ABUTH [3] = test: Post-emergence herbicidal action against ABUTH; type: in vivo, Abutilon theophrasti; conditions: Abutilon theophrasti, 504 h, visual assessment about 3 weeks after treatment vs untreated controls; for pest or weed control at 5 g/ha: dosage 5 g/ha; for pest or weed control at 20 g/ha: dosage 20 g/ha
Summary of the method: (§2)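 Foliar application at one-leaf stage of formulated test compounds, aqueous spray at 600–800 l/ha with 0.2% wetting agent. Greenhouse, optimal conditions, ~3 weeks; damage scored visually in % relative to untreated plants.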

ALOMY [4] = test: Post-emergence herbicidal action against ALOMY; type: in vivo, Alopecurus myosuroides; conditions: Alopecurus myosuroides, 504 h, visual assessment about 3 weeks after treatment vs untreated controls; for pest or weed control at 20 g/ha: dosage 20 g/ha
Summary of the method: as §2

HORMU [5] = test: Post-emergence herbicidal action against HORMU; type: in vivo, Hordeum murinum; conditions: Hordeum murinum, 504 h
Summary of the method: as §2

LOLRI = test: Pre-emergence herbicidal action against LOLRI; type: in vivo, Lolium rigidum; conditions: Lolium rigidum, 504 h
Summary of the method: as §1

MATIN [6] = test: Post-emergence herbicidal action against MATIN; type: in vivo, Matricaria inodora; conditions: Tripleurospermum inodorum, 504 h
Summary of the method: as §2

SETVI [7] = test: Pre-emergence herbicidal action against SETVI; type: in vivo, Setaria viridis; conditions: Setaria viridis, 504 h; for pest or weed control at 80 g/ha: dosage 80 g/ha
Summary of the method: as §1

AVEFA [8] = test: Pre-emergence herbicidal action against AVEFA; type: in vivo, Avena fatua; conditions: Avena fatua, 504 h, pre-emergence
Summary of the method: as §1

VERPE [9] = test: Post-emergence herbicidal action against VERPE; type: in vivo, Veronica persica; conditions: Veronica persica, 504 h
Summary of the method: as §2

AMARE = test: Pre-emergence herbicidal action against AMARE; type: in vivo, Amaranthus retroflexus; conditions: Amaranthus retroflexus, 504 h, 100% = plants have died, 0% = like control plants; for pest or weed control at 20 g/ha / pest or weed control at 80 g/ha: scored visually after 3 weeks vs untreated controls
Summary of the method: as §1

VIOTR = test: Post-emergence herbicidal action against VIOTR; type: in vivo, Viola tricolor; conditions: Viola tricolor, 504 h
Summary of the method: as §2

ALOMY [10] = test: Pre-emergence herbicidal action against ALOMY; type: in vivo, Alopecurus myosuroides; conditions: Alopecurus myosuroides, 504 h, pre-emergence; for pest or weed control at 80 g/ha: scored visually after 3 weeks vs untreated controls (100% = plants have died, 0% = like control plants)
Summary of the method: as §1

MATIN [11] = test: Pre-emergence herbicidal action against MATIN; type: in vivo, Matricaria inodora; conditions: Tripleurospermum inodorum, 504 h; for pest or weed control at 80 g/ha: dosage 80 g/ha
Summary of the method: as §1

VERPE [12] = test: Pre-emergence herbicidal action against VERPE; type: in vivo, Veronica persica; conditions: Veronica persica, 504 h; for pest or weed control at 80 g/ha: dosage 80 g/ha
Summary of the method: as §1

ECHCG = test: Post-emergence herbicidal action against ECHCG; type: in vivo, Echinochloa crus-galli; conditions: Echinochloa crus-galli, 504 h; for pest or weed control at 20 g/ha: dosage 20 g/ha
Summary of the method: as §2

ABUTH [13] = test: Pre-emergence herbicidal action against ABUTH; type: in vivo, Abutilon theophrasti; conditions: Abutilon theophrasti, 504 h; for pest or weed control at 80 g/ha: scored visually after 3 weeks vs untreated controls (100% = plants have died, 0% = like control plants); for pest or weed control at 20 g/ha: dosage 20 g/ha, scored visually after 3 weeks vs untreated controls, read-out: Pre-emergence action against ABUTH (herbicidal activity in percent)
Summary of the method: as §1

POLCO = test: Pre-emergence herbicidal action against POLCO; type: in vivo, Polygonum convolvulus; conditions: Fallopia convolvulus, 504 h
Summary of the method: as §1

PHBPU = test: Post-emergence herbicidal action against PHBPU; type: in vivo, Pharbitis purpurea; conditions: Ipomoea purpurea, 504 h
Summary of the method: as §2

AVEFA [14] = test: Post-emergence herbicidal action against AVEFA; type: in vivo, Avena fatua; conditions: Avena fatua, 504 h, visual assessment about 3 weeks after treatment, 100% = plants have died, 0% = like control plants
Summary of the method: as §2

STEME [15] = test: Post-emergence herbicidal action against STEME; type: in vivo, Stellaria media; conditions: Stellaria media, 504 h
Summary of the method: as §2

SETVI [16] = test: Post-emergence herbicidal action against SETVI; type: in vivo, Setaria viridis; conditions: Setaria viridis, 504 h; for pest or weed control at 20 g/ha: dosage 20 g/ha
Summary of the method: as §2

[17] = 100% = plants have died, 0% = like control plants
[18] = 320 g/ha, scored visually after 3 weeks, 100% = plants have died, 0% = like control plants

Work on CCn1nnnc1NC(=O)c1ccc(C(F)(F)F)c(C(=O)NC2CC2)c1C [Example 2-27] yielded a pest or weed control at 80 g/ha (HORMU [1]) of 90%, a pest or weed control at 20 g/ha (STEME [2]; dosage 20 g/ha) of 100% and a pest or weed control at 80 g/ha (STEME [2]) of 100%. The pest or weed control at 5 g/ha (ABUTH [3]) was 100%, the pest or weed control at 20 g/ha (ABUTH [3]) was 100% and the pest or weed control at 5 g/ha (ALOMY [4]; dosage 5 g/ha) was 80%. It also gave a pest or weed control at 20 g/ha (ALOMY [4]) of 90%, a pest or weed control at 20 g/ha (HORMU [5]; dosage 20 g/ha) of 90% and a pest or weed control at 80 g/ha (LOLRI; 80 g/ha) of 80%. The pest or weed control at 5 g/ha (MATIN [6]; dosage 5 g/ha) was 100%, the pest or weed control at 20 g/ha (MATIN [6]; dosage 20 g/ha) was 100% and the pest or weed control at 80 g/ha (SETVI [7]) was 100%. The pest or weed control at 80 g/ha (AVEFA [8]) was 100%, the pest or weed control at 20 g/ha (AVEFA [8]; 20 g/ha, scored visually after 3 weeks, 100% = plants have died, 0% = like control plants) was 80% and the pest or weed control at 20 g/ha (VERPE [9]) was 80%. The pest or weed control at 20 g/ha (AMARE) was 100%, the pest or weed control at 80 g/ha (AMARE) was 100% and the pest or weed control at 5 g/ha (VIOTR; 5 g/ha) was 100%. For the same molecule, the pest or weed control at 20 g/ha (VIOTR) was 100%, the pest or weed control at 80 g/ha (ALOMY [10]) was 100% and the pest or weed control at 20 g/ha (MATIN [11]; dosage 20 g/ha) was 100%. It also gave a pest or weed control at 80 g/ha (MATIN [11]) of 100%, a pest or weed control at 20 g/ha (VERPE [12]; dosage 20 g/ha) of 80% and a pest or weed control at 80 g/ha (VERPE [12]) of 100%. For the same molecule, the pest or weed control at 5 g/ha (ECHCG; dosage 5 g/ha) was 80%, the pest or weed control at 20 g/ha (ECHCG) was 100% and the pest or weed control at 80 g/ha (ABUTH [13]) was 100%. For the same molecule, the pest or weed control at 20 g/ha (ABUTH [13]; [17]) was 100%, the pest or weed control at 20 g/ha (POLCO; dosage 20 g/ha) was 80% and the pest or weed control at 80 g/ha (POLCO; dosage 80 g/ha) was 100%. For the same molecule, the pest or weed control at 20 g/ha (PHBPU; dosage 20 g/ha) was 90%, the pest or weed control at 5 g/ha (AVEFA [14]; 5 g/ha) was 90% and the pest or weed control at 20 g/ha (AVEFA [14]) was 100%. The pest or weed control at 20 g/ha (STEME [15]) was 100%, the pest or weed control at 5 g/ha (STEME [15]; dosage 5 g/ha) was 100% and the pest or weed control at 5 g/ha (SETVI [16]; dosage 5 g/ha) was 80%. It also gave a pest or weed control at 20 g/ha (SETVI [16]) of 100%.

CCn1nnnc1NC(=O)c1ccc(C(F)(F)F)c(C(N)=O)c1Cl [Example 2-338] gave a pest or weed control at 80 g/ha (HORMU [1]) of 80%, a pest or weed control at 320 g/ha (HORMU [1]; 320 g/ha) of 100% and a pest or weed control at 80 g/ha (STEME [2]) of 90%. The pest or weed control at 320 g/ha (STEME [2]; dosage 320 g/ha) was 100%, the pest or weed control at 5 g/ha (ABUTH [3]) was 100% and the pest or weed control at 20 g/ha (ABUTH [3]) was 100%. It also gave a pest or weed control at 80 g/ha (ABUTH [3]; dosage 80 g/ha) of 100%, a pest or weed control at 20 g/ha (ALOMY [4]) of 80% and a pest or weed control at 80 g/ha (ALOMY [4]; dosage 80 g/ha) of 100%. It also gave a pest or weed control at 80 g/ha (HORMU [5]; dosage 80 g/ha) of 100%, a pest or weed control at 320 g/ha (LOLRI; 320 g/ha) of 100% and a pest or weed control at 80 g/ha (SETVI [7]) of 90%. For the same molecule, the pest or weed control at 320 g/ha (SETVI [7]; dosage 320 g/ha) was 100%, the pest or weed control at 80 g/ha (AVEFA [8]) was 90% and the pest or weed control at 320 g/ha (AVEFA [8]; [18]) was 100%. For the same molecule, the pest or weed control at 20 g/ha (VERPE [9]) was 90%, the pest or weed control at 80 g/ha (VERPE [9]; 80 g/ha) was 100% and the pest or weed control at 20 g/ha (AMARE) was 90%. For the same molecule, the pest or weed control at 80 g/ha (AMARE) was 100%, the pest or weed control at 320 g/ha (AMARE; 320 g/ha, scored visually after 3 weeks) was 100% and the pest or weed control at 20 g/ha (VIOTR) was 100%. It also gave a pest or weed control at 80 g/ha (VIOTR; 80 g/ha) of 100%, a pest or weed control at 80 g/ha (ALOMY [10]) of 90% and a pest or weed control at 320 g/ha (ALOMY [10]; [18]) of 100%. For the same molecule, the pest or weed control at 80 g/ha (MATIN [11]) was 90%, the pest or weed control at 320 g/ha (MATIN [11]; dosage 320 g/ha) was 100% and the pest or weed control at 80 g/ha (VERPE [12]) was 100%. The pest or weed control at 320 g/ha (VERPE [12]; dosage 320 g/ha) was 100%, the pest or weed control at 20 g/ha (ECHCG) was 80% and the pest or weed control at 80 g/ha (ECHCG; dosage 80 g/ha) was 100%. The pest or weed control at 80 g/ha (ABUTH [13]) was 100%, the pest or weed control at 320 g/ha (ABUTH [13]; Dosage: 320 g/ha, scored visually after 3 weeks, 100% = plants have died, 0% = like control plants) was 100% and the pest or weed control at 20 g/ha (ABUTH [13]; [17]) was 90%. It also gave a pest or weed control at 320 g/ha (POLCO; dosage 320 g/ha) of 90%, a pest or weed control at 80 g/ha (PHBPU; dosage 80 g/ha) of 90% and a pest or weed control at 20 g/ha (AVEFA [14]) of 80%. For the same molecule, the pest or weed control at 80 g/ha (AVEFA [14]; 80 g/ha) was 100%, the pest or weed control at 20 g/ha (STEME [15]) was 90% and the pest or weed control at 80 g/ha (STEME [15]; 80 g/ha) was 100%. For the same molecule, the pest or weed control at 20 g/ha (SETVI [16]) was 80% and the pest or weed control at 80 g/ha (SETVI [16]; dosage 80 g/ha) was 100%.
